# ChEMBL document CHEMBL1134703, “Simplified catechin-gallate inhibitors of HIV-1 reverse transcriptase” (Bioorg Med Chem Lett, 2001)
# Biological target: Human immunodeficiency virus type 1 reverse transcriptase (Human immunodeficiency virus 1, UniProt Q72547)
# Test: Inhibition of polymerization in wild type HIV-1 RT with poly rC/dG12-18 template primer and [3H]dGTP
row,Structure (SMILES),IC50 [µM]
1,O=C(OC1COc2cc(O)cc(O)c2C1)c1ccc(O)c(O)c1O (stereo not drawn),3.83
2,O=C(OC1COc2cc(O)cc(O)c2C1)c1ccc(O)cc1O (stereo not drawn),96.3
3,Oc1cc(O)c2c(c1)O[C@H](c1ccc(O)c(O)c1)[C@H](O)C2 [(-)-EPICATECHIN],> 100
4,O=C(O[C@@H]1Cc2c(O)cc(O)cc2O[C@@H]1c1ccc(O)c(O)c1)c1cc(O)c(O)c(O)c1 [EPICATECHIN GALLATE],0.76
5,O=C(O[C@@H]1Cc2c(O)cc(O)cc2O[C@@H]1c1cc(O)c(O)c(O)c1)c1cc(O)c(O)c(O)c1 [EPIGALOCATECHIN GALLATE],0.73
6,O=C(O)c1cc(O)c(O)c(O)c1 [GALLIC ACID],> 100

# Next, values leading:
row,IC50 [µM],Structure (SMILES)
1,10.7,O=C(OCCC1COc2cc(O)c(O)cc2C1)c1ccc(O)c(O)c1O (stereo not drawn)
2,> 100,O=C(OC1COc2cc(O)cc(O)c2C1)c1cccc(O)c1 (stereo not drawn)
3,> 100,O=C(OC1COc2cc(O)cc(O)c2C1)c1ccccc1 (stereo not drawn)
4,45.5,O=C(OC1COc2cccc(O)c2C1)c1ccc(O)c(O)c1O (stereo not drawn)
5,> 100,O=C(OC1COc2ccccc2C1)c1ccc(O)c(O)c1O (stereo not drawn)
6,37.2,O=C(OC1COc2cc(O)cc(O)c2C1)c1cccc(O)c1O (stereo not drawn)
7,36.3,O=C(OC1COc2cc(O)ccc2C1)c1ccc(O)c(O)c1O (stereo not drawn)
